# What was measured:
# [1] = system: HUVEC cells; assay: HUVEC cells experiment: phospho-tyrosine level after VEGF, flow cytometry; type: cell-based, Human; details: exposure 3 h, 20 ng/ml VEGF 5 min; A1 and AG1478 1 and 5 μM, 5FU 1 and 5 mM; FIG. 1
# Protocol: FIG. 1: Effect of different compounds on the phospho-tyrosine level of HUVEC cells treated with VEGF. On the abscissa: 1 is the IgG control, untreated with VEGF and unexposed to an active ingredient; 2 is the control untreated with VEGF and unexposed to an active ingredient; 3 is the control treated with VEGF but unexposed to an active ingredient; 4 is treated with VEGF and exposed to 1 μM of compound A1; 5 is treated with VEGF and exposed to 5 μM of compound A1; 6 is treated with VEGF and exposed to 1 μM of compound AG1478; 7 is treated with VEGF and exposed to 5 μM of compound AG 1478; 8 is treated with VEGF and exposed to 1 mM of compound 5FU; 9 is treated with VEGF and exposed to 5 mM of compound 5FU. HUVEC cells were exposed to compound A1 (1 μM and 5 μM), to the EGFR inhibitor AG1478 (1 μM and 5 μM) and to 5FU (5-fluorouracile, 1 mM and 5 mM) for 3 h and 20 ng/ml of VEGF were added for 5 min before cell collection. Collected cells were washed twice by PBS and centrifugation (300 g, 5 min) in 50 μL of staining buffer. After removal of the supernatant by aspiration, cell pellets were lysed in 250 μL of fixation/permeabilization solution and kept for 20 min on ice. The PY-100 Alexa 488 antibody and phosphatase inhibitor were added. […] The data was obtained from Cell Quest software (BD) and analyzed by WinMDI 2.9 (free software).
# [2] = system: VEGFR2^+pY^+ cells in murine peripheral blood; assay: murine blood samples in vivo study (HepG2-inoculated mice), flow cytometry; details: 50 or 100 mg/kg p.o. for 14 days
# Protocol: Mice, inoculated HepG2 cells, were randomized for three groups by tumor size and treated with vehicle (control), compound A1 (50 mg/kg, p.o.) or compound A1 (100 mg/kg, p.o.) for 14 days. Mice were sacrificed and whole murine blood samples were collected by aspiration from abdominal aorta or heart. The blood was hemolyzed by an hemolytic agent at room temperature for 10 min. After centrifugation (500 g, 5 min), the cells were washed by 1 mL of staining buffer. The cells were then incubated with 100 μL of staining buffer and 5 μL of VEGFR2-PE antibody for 15 min in the dark. Then, the cells were washed and incubated in 500 μL of Fixation/Permeabilization solution for 20 min and washed by Perm/Wash buffer twice. Then, a mixture of antibodies (PY-100, CD45-PerCP-Cy5.5, 5 μL of each) and phosphatase inhibitor were added and incubated for 30 min in the dark. The cells were washed and analyzed by flow cytometry (FACS Calibur, BD). The data was obtained from Cell Quest software (BD) and analyzed by WinMDI 2.9 (free software).
# [3] = system: CD34^+CD45^dim peripheral blood cells; assay: Phase I clinical study: CD133/CD117 subpopulations of CD34^+CD45^dim peripheral blood cells, flow cytometry; type: in vivo, human
# Protocol: Whole blood was collected on pre-treatment (day 1), and on day 2, day 8 and day 29 after treatment. The subpopulation of CD34^+CD45^dim peripheral blood cells identified from whole blood was further identified by cell surface markers of CD133 and CD117 using flow cytometry. Whole blood (800 μL) was supplemented with 4.5 mL of 0.2% BSA-PBS and centrifuged for 5 min (1500 rpm). After the removal of the supernatant by aspiration, 4.5 mL of 0.2% BSA-PBS was added and centrifuged. The cell pellet was mixed with 50 μL of human gamma-globulin. Antibodies (CD34-FITC, CD117-PE, CD45-PerCP and CD133-APC) were added and kept for 45 min at 4 C. An hemolytic agent (4.5 mL) was added and incubated for 10 min. After centrifugation (1500 rpm, 5 min), the supernatant was washed twice. Then, 0.2% BSA-PBS (4.5 mL) was added, and the supernatant was removed by centrifugation (1500 rpm, 5 min). The cell pellet was filled up to 800 μL with BSA-PBS and analyzed by flow cytometry. The percentage (quadrants) of CD34^+CD45^dimCD133+/−CD117+/− cells were analyzed.
# [4] = responders, not significant, FIG. 5A
structure (smiles),measurement,setting,value
"CCS(=O)(=O)O.COC(=O)c1ccc2c(c1)NC(=O)/C2=C(\Nc1ccc(N(C)C(=O)CN2CCN(C)CC2)cc1)c1ccccc1 [compound A1, 3-Z-[1-(4-(N-((4-methyl-piperazin-1-yl)-methylcarbonyl)-N-methyl-amino)-anilino)-1-phenyl-methylene]-6-methoxycarbonyl-2-indolinone-monoethanesulphonate]",phospho-tyrosine levels of HUVEC cells,[1],suppressed
same,number of VEGFR2^+CD45^dimpY^+ cells,[2]; FIG. 2,seems to decrease
same,VEGFR2^+pY^+ cells in murine peripheral blood,[2]; FIG. 3,suppressed
same,CD34^+CD45^dimCD133^+CD117^+ cells in responders (stable disease) compared to non-responders,"[3]; after treatment, RES n=12, PD n=4, FIG. 5B",tended to decrease
same,percentage of CD34^+CD45^dimCD133^+CD117^+ cells,"[3]; patients with advanced solid tumors, day 29 compared with pre-treatment, p<0.001, FIG. 4A",significantly increased
same,percentage of CD34^+CD45^dimCD133^−CD117^+ cells,"[3]; patients with advanced solid tumors, day 29 compared with pre-treatment, p<0.01, FIG. 4A",decreased
same,CD34^+CD45^dimCD133^+ cells,"[3]; patients, day 29, FIG. 4B",significantly increased
same,CD34^+CD45^dimCD117^+ cells,"[3]; patients, day Band day 29, FIG. 4C",significantly decreased
same,CD34^+CD45^dimCD117^+ cells in responders (stable disease),[3]; [4],tended to decrease
same,CD34^+CD45^dimCD133^+ cells in responders (stable disease),[3]; [4],tended to decrease
